Results reported in ChEMBL document CHEMBL2034898, “Inhibition of homologous recombination in human cells by targeting RAD51 recombinase” (J Med Chem, 2012).
Residue numbers refer to the chain shown, from its start. Activity calls are given as the source filed them. The rule behind the calls is not given here.

How the values were obtained:
[1] = biological target: T1, DNA repair protein RAD51 homolog 1 (Homo sapiens) (UniProt Q06609); assay: Inhibition of human RAD51 in HEK-GFP cells assessed as reduction in double-strand breaks-induced homologous recombination at 5 to 20 uM by chromosomally integrated DR-GFP reporter gene assay; assay type: cell-based
T1 sequence (whole entry): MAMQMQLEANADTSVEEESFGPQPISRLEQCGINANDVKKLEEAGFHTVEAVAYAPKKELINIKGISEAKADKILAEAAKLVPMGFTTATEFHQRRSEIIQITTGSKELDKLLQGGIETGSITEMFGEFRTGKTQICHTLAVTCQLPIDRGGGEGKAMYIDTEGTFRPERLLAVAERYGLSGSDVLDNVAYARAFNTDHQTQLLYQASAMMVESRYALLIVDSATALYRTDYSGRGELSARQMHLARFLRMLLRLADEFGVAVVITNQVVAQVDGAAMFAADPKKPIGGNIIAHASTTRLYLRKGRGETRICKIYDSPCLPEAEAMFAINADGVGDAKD

[2] = Lipophilicity, log P of the compound; assay type: physicochemical; settings: octanol/water
[3] = biological target: T1, DNA repair protein RAD51 homolog 1 (Homo sapiens); assay: Inhibition of human RAD51-mediated DNA strand exchange at 5 to 20 uM using pBSK (+) gapped and linear dsDNA substrates by joint molecule formation assay
[4] = biological target: T1, DNA repair protein RAD51 homolog 1 (Homo sapiens); settings: 25 uM
Description: Inhibition of human RAD51 ATPase activity at 25 uM by ATP hydrolysis assay

[5] = biological target: T1, DNA repair protein RAD51 homolog 1 (Homo sapiens); settings: HEK293, 5 uM
Description: Inhibition of RAD51 in HEK cells assessed as potentiation of cisplatin-induced cytotoxicity at 5 uM in presence of RAD51 siRNA transfected 40 hrs before compound and cisplatin exposure for 10 to 12 hrs by clonogenic survival assay relative to untreated control

[6] = biological target: T2, Protein RecA (Escherichia coli K-12) (UniProt P0A7G6); assay: Inhibition of Escherichia coli RecA-mediated DNA branch migration at 10 to 100 microM using [32P]-labeled 5'-joint molecules after 8 hrs by branch migration assay
T2 sequence (whole entry): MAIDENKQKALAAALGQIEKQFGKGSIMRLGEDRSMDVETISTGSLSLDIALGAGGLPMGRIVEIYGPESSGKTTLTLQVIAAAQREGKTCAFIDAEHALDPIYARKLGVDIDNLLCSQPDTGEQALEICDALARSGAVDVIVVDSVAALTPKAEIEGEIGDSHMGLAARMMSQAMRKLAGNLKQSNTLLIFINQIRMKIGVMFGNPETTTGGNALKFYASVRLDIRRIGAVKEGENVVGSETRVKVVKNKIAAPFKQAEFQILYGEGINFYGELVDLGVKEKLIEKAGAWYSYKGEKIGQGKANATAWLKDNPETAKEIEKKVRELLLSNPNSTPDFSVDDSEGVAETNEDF

MEF [7] = assay: Toxicity in MEF cells assessed as cell viability at 5 uM by incubated for 1 hr by clonogenic survival assay; assay type: cell-based; settings: mouse
HEK-GFP [8] = assay: Effect on RAD51 expression in HEK-GFP cells by Western blotting; assay type: functional, cell-based; settings: Homo sapiens
[9] = biological target: T1, DNA repair protein RAD51 homolog 1 (Homo sapiens); settings: HEK293, 5 uM; remark: listed apart in the source
Description: Inhibition of RAD51 in HEK cells assessed as potentiation of cisplatin-induced cytotoxicity at 5 uM in presence of RAD51 siRNA transfected 40 hrs before compound and cisplatin addition by clonogenic survival assay relative to untreated control

[10] = biological target: T3, DNA repair protein RAD51 homolog 1 (Mus musculus) (UniProt Q08297); settings: MEF, 5 uM
T3 sequence (whole entry): T1 sequence (whole entry) with N10S, F46Y, A76T, A194G
Description: Inhibition of RAD51 in MEF cells assessed as potentiation of MMC-induced cytotoxicity at 5 uM incubated for 1 hr in presence of 0.01 uM PARP1 inhibitor AZD2281 by clonogenic survival assay relative to untreated control

[11] = biological target: T3, DNA repair protein RAD51 homolog 1 (Mus musculus); settings: MEF, 5 uM; remark: listed apart in the source
Description: Inhibition of RAD51 in MEF cells assessed as potentiation of MMC-induced cytotoxicity at 5 uM incubated for 1 hr by clonogenic survival assay relative to untreated control

[12] = biological target: T1, DNA repair protein RAD51 homolog 1 (Homo sapiens); settings: 20 uM
Description: Inhibition of human RAD51-ssDNA filament formation at 20 uM added to free RAD51 prior to filament formation by D-loop formation assay

[13] = biological target: T3, DNA repair protein RAD51 homolog 1 (Mus musculus); settings: MEF, 5 uM; remark: listed apart in the source
Description: Inhibition of RAD51 in Tp53-/- MEF cells assessed as potentiation of 32 uM cisplatin-induced cytotoxicity at 5 uM incubated for 1 hr by clonogenic survival assay relative to untreated control

[14] = biological target: T1, DNA repair protein RAD51 homolog 1 (Homo sapiens); settings: HEK293, 25 uM
Description: Inhibition of DNA binding to human RAD51 in irradiated HEK cells assessed as reduction in RAD51 foci formation at 25 uM by fluorescence microscopy relative to untreated control

[15] = biological target: T1, DNA repair protein RAD51 homolog 1 (Homo sapiens); settings: 20 uM; remark: listed apart in the source
Description: Inhibition of dsDNA binding to human RAD51-ssDNA filament assessed as reduction in coaggregation formation at 20 uM in presence of 50 mM NaCl by dsDNA coaggregation assay

[16] = biological target: T1, DNA repair protein RAD51 homolog 1 (Homo sapiens); settings: 200 uM
Description: Inhibition of human RAD51 oligomerization at 200 uM by gel filtration method

[17] = biological target: T3, DNA repair protein RAD51 homolog 1 (Mus musculus); settings: MEF, 5 uM; remark: listed apart in the source
Description: Inhibition of RAD51 in Tp53-/- MEF cells assessed as potentiation of 1 uM MMC-induced cytotoxicity at 5 uM incubated for 1 hr by clonogenic survival assay relative to untreated control

HEK-GFP [18] = assay: Effect on GFP expression in HEK-GFP cells transfected with pMX-GFP plasmid by Western blotting; assay type: functional, cell-based; settings: Homo sapiens
[19] = biological target: T2, Protein RecA (Escherichia coli K-12); assay: Inhibition of Escherichia coli RecA-mediated DNA strand exchange at 10 to 100 microM using pBSK (+) gapped and linear dsDNA substrates by joint molecule formation assay
[20] = biological target: T1, DNA repair protein RAD51 homolog 1 (Homo sapiens); settings: HEK293, 5 uM; remark: listed apart in the source
Description: Inhibition of RAD51 in HEK cells assessed as potentiation of cisplatin-induced cytotoxicity at 5 uM in presence of RAD51 siRNA transfected 40 hrs before compound and cisplatin exposure for 16 hrs by clonogenic survival assay relative to untreated control

MEF [21] = assay: Toxicity in Tp53-/- MEF cells assessed as cell viability at 5 uM by incubated for 1 hr by clonogenic survival assay; assay type: cell-based; settings: mouse
[22] = biological target: T1, DNA repair protein RAD51 homolog 1 (Homo sapiens); settings: 25 uM; remark: listed apart in the source
Description: Inhibition of ssDNA binding to human RAD51 assessed as reduction in RAD51-90-mer ssDNA complex formation at 25 uM by EMSA method

HEK-GFP [23] = assay: Effect on I-SceI expression in HEK-GFP cells by Western blotting; assay type: functional, cell-based; settings: Homo sapiens
[24] = biological target: T2, Protein RecA (Escherichia coli K-12); assay: Binding affinity to Escherichia coli RecA at 50 microM by SPR method

**Q.** With Cc1cc2nc3c(nc2cc1C)[C@@]1(C(=O)O)CCC3(C)C1(C)C as the compound, how does the inhibition [1] read?
**A.** The inhibition was “inactive”.

**Q.** What about the logP [2] of the same compound?
**A.** The logP was 3.7.

**Q.** And the inhibition [3]?
**A.** Its inhibition is “inactive”.

**Q.** Which inhibition [4] does the source give for O=c1c2ccccc2nc(/C=C/c2cccnc2)n1Cc1ccccc1 here?
**A.** Its inhibition is “Active”.

**Q.** What about the inhibition [5] of the same compound?
**A.** Its inhibition is “Active”.

**Q.** What about the inhibition [6] of the same compound?
**A.** The inhibition was “inactive”.

**Q.** What about the Activity (MEF [7]) of the same compound?
**A.** Its Activity is “Non-toxic”.

**Q.** And the Activity (HEK-GFP [8])?
**A.** Its Activity is “inactive”.

**Q.** What about the logP [2] of the same compound?
**A.** The logP was 3.7.

**Q.** And the inhibition [9]?
**A.** Its inhibition is “Active”.

**Q.** And the inhibition [10]?
**A.** The inhibition was “Active”.

**Q.** And the inhibition [11]?
**A.** The inhibition was “inactive”.

**Q.** And the inhibition [12]?
**A.** Its inhibition is “Active”.

**Q.** And the inhibition [13]?
**A.** Its inhibition is “Active”.

**Q.** What about the inhibition [14] of the same compound?
**A.** The inhibition was “Active”.

**Q.** And the inhibition [15]?
**A.** The inhibition was “Active”.

**Q.** And the inhibition [16]?
**A.** The inhibition was “inactive”.

**Q.** And the inhibition [17]?
**A.** The inhibition was “Active”.

**Q.** What about the Activity (HEK-GFP [18]) of the same compound?
**A.** Its Activity is “inactive”.

**Q.** What about the inhibition [19] of the same compound?
**A.** The inhibition was “inactive”.

**Q.** What about the inhibition [20] of the same compound?
**A.** The inhibition was “Active”.

**Q.** What about the Activity (MEF [21]) of the same compound?
**A.** Its Activity is “Non-toxic”.

**Q.** What about the inhibition [22] of the same compound?
**A.** The inhibition was “Active”.

**Q.** And the Activity (HEK-GFP [23])?
**A.** Its Activity is “inactive”.

**Q.** And the Activity [24]?
**A.** The Activity was “inactive”.
